{"source": "patent US20090311237A1", "about": "“Combination therapy using a soluble hyaluronidase and a bisphosphonate” (priority 2008, published 2009)", "assay": "Phase 1 Stage 1 clinical pharmacokinetics of SC ZA co-administered with rHuPH20", "format": "in vivo, human", "set-up": "key to Mean Conc. / Median Conc.: BLQ = blow limit for quantitation", "settings": "serum; for Zoledronic Acid Concentration: individual subjects; for Mean Conc. / Median Conc.: n=3", "experimental": "A pharmacokinetic study of zoledronic acid (ZA) co-administered with rHuPH20 in human subjects was conducted. The primary objective of the study was to determine the bioavailability of zoledronic acid dosed via subcutaneous (SC) co-administration with human recombinant hyaluronidase PH20 (rHuPH20). […] The patients were administered the prescribed dosage formulations as follows: Cohorts 1-5 were administered a single subcutaneous infusion in a dosage volume of 100 ml at a rate of 3 mL/min. […] The dosing solution is administered via needle or catheter into the SC space of the left anterior thigh (midway between the anterior iliac crest and the cephalad border of the patella). For cohorts 1-5, the dosing solutions were administered by a controlled rate infusion pump at approximately 3 mL/minute. […] The dosing solutions were administered by syringe push bolus injection. […] Serum concentration of ZA was determined using a qualified LC-MS-MS assay after derivatization with diazomethane (Zhu, L S et al. (2006) Rapid Commun. […] The assay range was from 2.0 to 400 ng/mL with a lower limit of quantitation (LLOQ) at 2.0 ng/mL. […] Non-compartmental analysis was used for derivation of primary and secondary pharmacokinetic (PK) parameters. […] Summary statistics (mean, standard deviation, and median) were calculated using JMP or Microsoft Excel.", "key": {"[1]": {"settings": "ZA 0.5 mg SC infusion + 24000 Units rHuPH20, 24 h post infusion"}, "[2]": {"settings": "ZA 0.5 mg SC infusion + 24000 Units rHuPH20, 48 h post infusion"}, "[3]": {"settings": "ZA 1 mg SC infusion + 24000 Units rHuPH20, 48 h post infusion"}}, "note": "“And” between values parts separate entries of the source, which are not always exact repeats. Identical values can stand only once.", "data": [{"molecule": "O=P(O)(O)C(O)(Cn1ccnc1)P(=O)(O)O", "note": "[ZA, 1-hydroxy-2-(1H-imidazol-1-yl)ethylidene-1,1-bisphosphonic acid]", "values": [{"measurement": "Zoledronic Acid Concentration", "setting": "ZA 0.5 mg SC infusion + 24000 Units rHuPH20, 10 min post infusion, listed as Zoledronic Acid", "result": 16.80, "unit": "ng/mL"}, {"measurement": "Zoledronic Acid Concentration", "setting": "ZA 0.5 mg SC infusion + 24000 Units rHuPH20, 0.5 h post infusion, listed as Zoledronic Acid", "result": 16.50, "unit": "ng/mL"}, {"measurement": "Zoledronic Acid Concentration", "setting": "ZA 0.5 mg SC infusion + 24000 Units rHuPH20, 1 h post infusion, listed as Zoledronic Acid", "result": 15.00, "unit": "ng/mL"}, {"measurement": "Zoledronic Acid Concentration", "setting": "[1]", "result": "BLQ < (0.500) ng/mL"}, {"measurement": "Mean Conc.", "setting": "[1]", "result": "BLQ"}, {"measurement": "Median Conc.", "setting": "[1]", "result": "BLQ"}, {"measurement": "Zoledronic Acid Concentration", "setting": "[2]", "result": "BLQ < (0.500) ng/mL"}, {"measurement": "Mean Conc.", "setting": "[2]", "result": "BLQ"}, {"measurement": "Median Conc.", "setting": "[2]", "result": "BLQ"}, {"measurement": "Zoledronic Acid Concentration", "setting": "ZA 1 mg SC infusion + 24000 Units rHuPH20, 0 h post infusion, listed as Zoledronic Acid", "result": 15.30, "unit": "ng/mL"}, {"measurement": "Zoledronic Acid Concentration", "setting": "ZA 1 mg SC infusion + 24000 Units rHuPH20, 10 min post infusion, listed as Zoledronic Acid", "result": 25.00, "unit": "ng/mL"}, {"measurement": "Zoledronic Acid Concentration", "setting": "ZA 1 mg SC infusion + 24000 Units rHuPH20, 0.5 h post infusion, listed as Zoledronic Acid", "result": 23.00, "unit": "ng/mL"}, {"measurement": "Zoledronic Acid Concentration", "setting": "ZA 1 mg SC infusion + 24000 Units rHuPH20, 1 h post infusion, listed as Zoledronic Acid", "result": 19.40, "unit": "ng/mL"}, {"measurement": "Zoledronic Acid Concentration", "setting": "ZA 1 mg SC infusion + 24000 Units rHuPH20, 2 h post infusion, listed as Zoledronic Acid", "result": 17.00, "unit": "ng/mL"}, {"measurement": "Zoledronic Acid Concentration", "setting": "ZA 1 mg SC infusion + 24000 Units rHuPH20, 4 h post infusion, listed as Zoledronic Acid", "result": 10.20, "unit": "ng/mL"}, {"measurement": "Zoledronic Acid Concentration", "setting": "ZA 1 mg SC infusion + 24000 Units rHuPH20, 6 h post infusion, listed as Zoledronic Acid", "result": 5.47, "unit": "ng/mL"}, {"measurement": "Zoledronic Acid Concentration", "setting": "ZA 1 mg SC infusion + 24000 Units rHuPH20, 8 h post infusion, listed as Zoledronic Acid", "result": 3.17, "unit": "ng/mL"}, {"measurement": "Zoledronic Acid Concentration", "setting": "ZA 1 mg SC infusion + 24000 Units rHuPH20, 12 h post infusion, listed as Zoledronic Acid", "result": 1.30, "unit": "ng/mL"}, {"measurement": "Zoledronic Acid Concentration", "setting": "ZA 1 mg SC infusion + 24000 Units rHuPH20, 24 h post infusion, listed as Zoledronic Acid", "result": 0.51, "unit": "ng/mL"}, {"measurement": "Zoledronic Acid Concentration", "setting": "[3]", "result": "BLQ < (0.500) ng/mL"}, {"measurement": "Mean Conc.", "setting": "[3]", "result": "BLQ"}, {"measurement": "Median Conc.", "setting": "[3]", "result": "BLQ"}, {"measurement": "Zoledronic Acid Concentration", "setting": "ZA 2 mg SC infusion + 24000 Units rHuPH20, 0 h post infusion, listed as Zoledronic Acid", "result": "39.60 ng/mL and 40.80 ng/mL"}, {"measurement": "Zoledronic Acid Concentration", "setting": "ZA 2 mg SC infusion + 24000 Units rHuPH20, 10 min post infusion, listed as Zoledronic Acid", "result": "46.30 ng/mL and 46.00 ng/mL"}, {"measurement": "Zoledronic Acid Concentration", "setting": "ZA 2 mg SC infusion + 24000 Units rHuPH20, 0.5 h post infusion, listed as Zoledronic Acid", "result": "47.30 ng/mL and 48.60 ng/mL"}, {"measurement": "Zoledronic Acid Concentration", "setting": "ZA 2 mg SC infusion + 24000 Units rHuPH20, 1 h post infusion, listed as Zoledronic Acid", "result": "53.00 ng/mL and 58.70 ng/mL"}, {"measurement": "Zoledronic Acid Concentration", "setting": "ZA 2 mg SC infusion + 24000 Units rHuPH20, 2 h post infusion, listed as Zoledronic Acid", "result": "40.10 ng/mL and 42.20 ng/mL"}, {"measurement": "Zoledronic Acid Concentration", "setting": "ZA 2 mg SC infusion + 24000 Units rHuPH20, 4 h post infusion, listed as Zoledronic Acid", "result": "20.30 ng/mL and 23.00 ng/mL"}, {"measurement": "Zoledronic Acid Concentration", "setting": "ZA 2 mg SC infusion + 24000 Units rHuPH20, 6 h post infusion, listed as Zoledronic Acid", "result": "7.71 ng/mL and 8.93 ng/mL"}, {"measurement": "Zoledronic Acid Concentration", "setting": "ZA 2 mg SC infusion + 24000 Units rHuPH20, 8 h post infusion, listed as Zoledronic Acid", "result": "3.34 ng/mL and 4.81 ng/mL"}, {"measurement": "Zoledronic Acid Concentration", "setting": "ZA 2 mg SC infusion + 24000 Units rHuPH20, 12 h post infusion, listed as Zoledronic Acid", "result": "1.64 ng/mL and 2.07 ng/mL"}, {"measurement": "Zoledronic Acid Concentration", "setting": "ZA 2 mg SC infusion + 24000 Units rHuPH20, 24 h post infusion, listed as Zoledronic Acid", "result": "0.85 ng/mL and 0.98 ng/mL"}, {"measurement": "Zoledronic Acid Concentration", "setting": "ZA 2 mg SC infusion + 24000 Units rHuPH20, 48 h post infusion, listed as Zoledronic Acid", "result": "BLQ < (0.500) ng/mL"}, {"measurement": "Median Conc.", "setting": "ZA 2 mg SC infusion + 24000 Units rHuPH20, 48 h post infusion", "result": "BLQ"}, {"measurement": "Zoledronic Acid Concentration", "setting": "ZA 5 mg SC infusion + 24000 Units rHuPH20, 0 h post infusion, listed as Zoledronic Acid", "result": "82.30 ng/mL and 53.50 ng/mL and 130.00 ng/mL"}, {"measurement": "Zoledronic Acid Concentration", "setting": "ZA 5 mg SC infusion + 24000 Units rHuPH20, 10 min post infusion, listed as Zoledronic Acid", "result": "76.10 ng/mL and 132.00 ng/mL"}, {"measurement": "Zoledronic Acid Concentration", "setting": "ZA 5 mg SC infusion + 24000 Units rHuPH20, 0.5 h post infusion, listed as Zoledronic Acid", "result": "112.00 ng/mL and 132.00 ng/mL"}, {"measurement": "Zoledronic Acid Concentration", "setting": "ZA 5 mg SC infusion + 24000 Units rHuPH20, 1 h post infusion, listed as Zoledronic Acid", "result": "113.00 ng/mL and 116.00 ng/mL"}, {"measurement": "Zoledronic Acid Concentration", "setting": "ZA 5 mg SC infusion + 24000 Units rHuPH20, 2 h post infusion, listed as Zoledronic Acid", "result": "89.80 ng/mL and 86.50 ng/mL"}, {"measurement": "Zoledronic Acid Concentration", "setting": "ZA 5 mg SC infusion + 24000 Units rHuPH20, 4 h post infusion, listed as Zoledronic Acid", "result": "42.80 ng/mL and 61.70 ng/mL"}, {"measurement": "Zoledronic Acid Concentration", "setting": "ZA 5 mg SC infusion + 24000 Units rHuPH20, 6 h post infusion, listed as Zoledronic Acid", "result": "22.30 ng/mL and 27.80 ng/mL"}, {"measurement": "Zoledronic Acid Concentration", "setting": "ZA 5 mg SC infusion + 24000 Units rHuPH20, 8 h post infusion, listed as Zoledronic Acid", "result": "11.00 ng/mL and 12.50 ng/mL"}, {"measurement": "Zoledronic Acid Concentration", "setting": "ZA 5 mg SC infusion + 24000 Units rHuPH20, 12 h post infusion, listed as Zoledronic Acid", "result": "4.61 ng/mL and 5.00 ng/mL"}, {"measurement": "Zoledronic Acid Concentration", "setting": "ZA 5 mg SC infusion + 24000 Units rHuPH20, 24 h post infusion, listed as Zoledronic Acid", "result": "2.98 ng/mL and 2.23 ng/mL"}, {"measurement": "Zoledronic Acid Concentration", "setting": "ZA 5 mg SC infusion + 24000 Units rHuPH20, 48 h post infusion, listed as Zoledronic Acid", "result": "1.63 ng/mL and 1.74 ng/mL"}]}]}
